ChEMBL document CHEMBL5537164, “Discovery of Potent, Orally Bioavailable, Tricyclic NLRP3 Inhibitors” (J Med Chem, 2024)

Key:
[1] = Lipophilicity, logD of compound at pH 7.4; format: physicochemical; conditions: buffer
[2] = Drug metabolism in rat liver microsomes assessed as N-demethylation of piperidine ring mediated metabolite formation; format: ADME, Microsome
[3] = Drug metabolism in human liver microsomes assessed as N-demethylation of piperidine ring mediated metabolite formation; format: ADME, Microsome
[4] = In vivo inhibition of NLRP3 in LPS/ATP-induced C57BL/6 mouse model of acute peritonitis assessed as reduction in IL-1beta level at 30 mg/kg, po preadministered with compound for 1 hrs followed by LPS stimulation for 2 hrs and measured 15 mins after ATP addition by ELISA relative to control; format: functional; conditions: time 3.25 hrs
[5] = Drug concentration in blood of C57BL/6 mouse model of acute peritonitis at 10 mg/kg, po preadministered with compound for 1 hrs followed by LPS stimulation for 2 hrs and measured 15 mins after ATP addition by HPLC-MS/MS analysis; format: ADME, organism-based; conditions: whole blood, read-out: Ct
[6] = Drug metabolism in human liver microsome assessed as thiophene oxidation mediated metabolite formation; format: ADME; conditions: microsomes
[7] = Equilibrium solubility of compound in DMSO at pH 6.8 by shake flask method; format: physicochemical
[8] = Drug concentration in brain of C57BL/6 mouse model of acute peritonitis at 50 mg/kg, po preadministered with compound for 1 hrs followed by LPS stimulation for 2 hrs and measured 15 mins after ATP addition by HPLC-MS/MS analysis; format: ADME, organism-based; conditions: read-out: Ct
[9] = Dose normalized AUC in C57BL/6 mouse at 3 mg/kg, po measured after 24 hrs by LC-MS/MS analysis; format: ADME, organism-based; conditions: in vivo
[10] = Clearance in C57BL/6 mouse at 1 mg/kg, iv measured after 24 hrs by LC-MS/MS analysis; format: ADME, organism-based; conditions: in vivo
[11] = Half-life in Beagle dog at 1 mg/kg, po or 0.1 mg/kg, iv measured after 24 hrs by LC-MS/MS analysis; format: ADME, organism-based, Canis lupus familiaris; conditions: in vivo

SMILES: CN1CCC[C@@H](NC(=O)Cn2nc(C(C)(C)O)n3c(cc4sc(Cl)cc43)c2=O)C1
- logD [1]: 2.3
- Drug metabolism [2]: Metabolite_Detected
- Drug metabolism [3]: Metabolite_Detected
- inhibition in vivo at 30 mg/kg [4]: 91%
- concentration at 3.25 h [5]: 163 nM
- Drug metabolism [6]: Metabolite_Notdetected
- solubility [7]: > 1000 µM
- concentration at 3.25 h [8]: 398 nM
- AUC/dose [9]: 235 nmol·h/L
- clearance [10]: 58 mL/min/kg
- half-life [11]: 5.7 h
